# Earlier results as cited in patent US5681581A, “Controlled release pharmaceutical formulations of 3'-azido-3'-deoxythymidine and methods of use” (priority 1995, dated 1997).
# “Also recorded” adds a separate entry of the source.
# Key:
# [1] = tested on: reverse transcriptase; settings: result in words
# [2] = tested on: DNA polymerase; settings: result in words
# [3] = tested on: bone marrow cells; settings: than AZT
# [4] = intravenous AZT 2.5 mg/kg, patients
# [5] = tested on: HIV; settings: result in words
# [6] = result in words
# [7] = tested on: cells of HIV infected patients; settings: HIV infected patients taking AZT
# [8] = animals
# [9] = capsules and liquid solutions, oral
# [10] = tested on: HIV
smiles,measurement,setting,value
Cc1cn([C@H]2C[C@H](N)[C@@H](COP(=O)(O)OP(=O)(O)OP(=O)(O)O)O2)c(=O)[nH]c1=O [AMT 5'triphosphate],inhibition of reverse transcriptase,[1],inhibitor of HIV reverse transcriptase
same,inhibition of DNA polymerase,[2],inhibitor of DNA polymerase
"Cc1cn([C@H]2C[C@H](N)[C@@H](CO)O2)c(=O)[nH]c1=O [AMT, 3'-amino-3'-deoxythymidine]",toxicity to bone marrow cells relative to AZT,[3],5-7 times more toxic
same,AMT level relative to AZT by AUC,[4],about twenty
same,binding of the reverse transcriptase enzyme,[1],competitive binding
same,antiviral activity,[5],no antiviral activity; also recorded: poor antiviral activity
same,effect on the anti-HIV action of AZT,[5],antagonistic effect
same,anti-cancer effects,[6],potent anti-cancer effects
"Cc1cn([C@H]2C[C@H](N=[N+]=[N-])[C@@H](CO)O2)c(=O)[nH]c1=O [AZT, 3'-azido-3'-deoxythymidine]",inhibition of reverse transcriptase,[1],inhibitor of reverse transcriptase
same,relationship between phosphorylated AZT and dosage or blood levels,[7],showed no relationship
same,AMT levels by oral route,[8],higher levels of AMT
same,absorption from the gastrointestinal tract,[9],rapidly absorbed
same,effectiveness in asymptomatic sero-positive patients,[10]; 1500 mg per day,not as effective as 500 mg per day
same,toxicity of dose,"[10]; human, in vivo",too toxic
Cc1cn([C@H]2C[C@H](N=[N+]=[N-])[C@@H](COP(=O)(O)OP(=O)(O)OP(=O)(O)O)O2)c(=O)[nH]c1=O [triphosphate form],inhibitory effect on viral transcription,[5],most inhibitory effect
